Measurements taken from patent US20220409657A1, “INSTRUCTIONS FOR COMPOSITION AND SENSITIVITY” (Azura Ophthalmics Ltd., priority 2020, published 2022).
Where two headings read alike, the source gives them in different places.

Tests used:
[1] = in vivo; cited from earlier work
seborrheic blepharitis = settings: cited from earlier work
animals = settings: in vivo; cited from earlier work
human subjects [2] = system: human subjects
From the text: In a clinical study three different concentrations were used; 0.1 wt. %, (10 subjects) 0.5 wt. % (12 subjects) and 1 wt. % (26 subjects).

human subject = system: human subject
Procedure: In most instances, the treatment is applied on a biweekly basis, however some patients move to daily application based on prespecified protocol criteria. Because the ointment-based composition is known to mix with tear fluid and cause blurry vision, individuals in this study are advised to apply the treatment prior to bed so as to avoid risks associated with reduced vision acuity. […] The in-office applications are conducted at specific, pre-determined time points. In these instances, the treatment is not applied before bed but rather is performed during daylight hours.

study patients = settings: in vivo
Procedure: In a first study patients were instructed to dose in both the evening, between visits, and in the daytime during regular scheduled clinic visits as part of the study protocol. Study patients received a 2-week run-in on a placebo which was administered twice weekly for a period of two weeks.
Adverse events comprise a feeling of grittiness, foreign body feeling, stinging, blurry vision, redness, tired eyes, water eyes, irritation, lid abnormalities, burning, corneal abrasion, photophobia, staining, or dry eye disorder (DED).

human subjects [3] = settings: in vivo
From the text: An additional 2 or 3 additional cases of adverse effects. Of these subjects, 2 had keratitis following the 1st in-office application and another patient deteriorate following the 2nd in-office application although the subject kept on another dose or two at home before coming with pain to be examined (a typical scenario when keratitis evolves).

rabbits = settings: dose about 4 mg, concentration up to 2.5 wt. %, ointment over the eyelid margin
[4] = system: meibomian gland disorder (MGD) patients; settings: twice a week, 3 month time point
Procedure: The drug was applied twice a week and final evaluation was done at the 3 month time point in which the primary outcome of Meibomian Gland Score (MGS) was assessed.

## selenium disulfide [SeS2]
[1]
  contact dermatitis: can produce contact dermatitis
  contact or photo-contact dermatitis in tinea versicolor treatment: None of the investigators encountered a single case
  hair loss after shampooing: diffuse hair loss
  skin reaction after shampoo applied three consecutive nights: developed circumscribed eczematous plaques
Seborrheic blepharitis; SeS2 0.5%
  treatment of seborrheic blepharitis: effective
Seborrheic blepharitis; human, in vivo
  adverse events following topical ocular use: superficial punctate keratitis and conjunctivitis
animals
  safe concentration for use in humans: 0.5%
Human subjects [2]; human, in vivo
  adverse events during the first month: no adverse events
  initiation of pain after the application: 6 to 20 h
  keratitis after in-office, daytime applications: no development of keratitis
  keratitis in bedtime applications: without a single occurrence of keratitis
  subjects who developed keratitis or keratitis related symptoms: four
  time from in-office morning application to significant pain: About 7 hours
Human subjects [2]; one patient, 1 wt. %, first month, twice weekly at home before bedtime
  total OSDI, VAS and SPEED: significant improvement
Human subject; 0.1 wt. % concentration
  keratitis: Keratitis is not observed
Human subject; 0.5 wt. % concentration
  keratitis: Keratitis is not observed
Human subject; 1 wt. % cohort, following in-office assessment
  patients noting symptoms of keratitis: four
Human subject; 400 or more bedtime applications
  bedtime applications resulting in keratitis: none
Human subject; at least one patient, one month of treatment, 1 wt. %
  health outcomes by OSDI, VAS and SPEED: improved health outcomes
Human subject; one patient, 1 wt. %
  time from in-office assessment to significant pain near the treated area: ≤ 7 h
Study patients
  reduction in the incidence of ocular adverse events: 75%
  reduction of discontinuations from adverse events (DC for AE): at least 50%
  reduction of rates of ocular adverse events (ocular AE): at least 50%
Human subjects [3]
  additional cases of adverse effects: 2-3 cases
  subjects with keratitis following the 1st in-office application: 2 subjects
rabbits
  tolerability: well tolerated
[4]; 9 patients using finger
  average change from baseline in Meibomian Gland Score (MGS): 10 (+/− 8.2)
[4]; 13 patients using applicator
  average change from baseline in Meibomian Gland Score (MGS): 2.3 (+/− 4.4)
